The values that follow come from US20240124478A1, “SPIROCYCLIC-SUBSTITUTED 6,7-DIHYDRO-PYRANO[2,3-d]PYRIMIDINE INHIBITORS OF KRAS G12C MUTANT” (Merck Sharp & Dohme LLC, priority 2020, published 2024).

By IC50 is commonly meant the concentration that inhibits the measured activity by half.

The target of assay [1] is recombinant biotinylated KRAS protein containing G12C/C51S/C80L/C118S mutations (Biotinylated KRAS G12C protein) (Homo sapiens (Human), UniProt P01116, C118S/C51S/C80L/G12C). The experiment in a line: SOS-catalyzed nucleotide exchange assay (TR-FRET). The note with it: apparent potency; preincubation time of 60 minutes prior to addition of SOS. It counts as biochemical. The method, then: The SOS-catalyzed nucleotide exchange assay utilizes a preformed complex of recombinant biotinylated KRAS protein containing G12C/C51S/C80L/C118S mutations (183 amino acids; biotin on K10; leader sequence which is an AviTag; referred to as SEQ ID NO: 1 or “Biotinylated KRAS G12C protein” hereafter), Bodipy-GDP, and Terbium-streptavidin. Compounds are added to this complex and then after 60 minutes incubation time, the mixture is treated with recombinant SOS protein and unlabeled GTP. Small molecule inhibitors stabilize the Bodipy-GDP complex whereas the untreated protein rapidly exchanges Bodipy-GDP for unlabeled GTP resulting in reduced TR-FRET signal.
Chain of recombinant biotinylated KRAS protein containing G12C/C51S/C80L/C118S mutations (Biotinylated KRAS G12C protein) (P01116 other isoform, or with tags, fused parts or gaps, stated change not applied): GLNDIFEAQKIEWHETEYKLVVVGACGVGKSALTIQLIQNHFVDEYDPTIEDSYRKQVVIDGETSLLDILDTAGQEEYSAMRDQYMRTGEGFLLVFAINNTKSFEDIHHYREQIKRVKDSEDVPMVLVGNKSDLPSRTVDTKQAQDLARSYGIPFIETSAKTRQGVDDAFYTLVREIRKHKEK
Biotinylated KRAS G12C protein (SEQ ID NO: 1) is diluted to 2 μM in an EDTA buffer (20 mM HEPES, 150 mM sodium chloride, 10 mM EDTA, and 0.01% Tween) and incubated at room temperature for one hour. This mixture is then further diluted to 90 nM in an assay buffer (20 mM HEPES, 150 mM sodium chloride, 10 mM magnesium chloride, and 0.005% Tween) containing 15 nM of Terbium-Streptavidin (Invitrogen, catalog #PV3577) and 900 nM of Bodipy-GDP and incubated at room temperature for six hours. This solution is referred to as Biotinylated KRAS G12C mixture.
Each test compound (10 mM stock in DMSO) is diluted in DMSO to make a 10-point, 3-fold dilution series in a 384-well low dead volume microplate (Labcyte, catalog #LP-0200). Once titrations are made, 10 nL of the diluted compounds is acoustically dispensed into a 384-well plate (Corning, catalog #3820) using an Echo 550 (Labcyte).
Each well of the plate receives 3 μL Biotinylated KRAS G12C mixture that had been incubating for six hours and 3 μL of assay buffer using a BioRAPTR (Beckman Coulter) and is incubated at room temperature for 60 minutes. Each well then receives 3 μL of 240 nM recombinant human SOS protein and 9 mM GTP (Sigma, G8877) in assay buffer and is incubated at room temperature for 60 minutes.
The time-resolved fluorescence resonance energy transfer signal of the plate is measured on an Envision (PerkinElmer) plate reader: Excitation filter=340 nm; emission1=495 nm; emission2=520 nm; dichroic mirror=D400/D505; delay time=100 μs. The signal of each well is determined as the ratio of the emission at 520 nm to that at 495 nm. Percent effect of each well is determined after normalization to control wells containing DMSO (no effect) or a saturating concentration of inhibitor (max effect). The apparent effect as a function of compound concentration is fit to a four parameter logistic equation.
A general note: In TR-FRET formats the signal depends on donor and acceptor labels being close together.

A further assay concerns NCI-H358 cells. As to the kind of experiment: Cellular phospho-ERK assay. It counts as cell-based. The note with it: 2 hour incubation, ratio of p-Erk vs total Erk, read-out: IC50 (nM) pERK (Cell). The method, then:
NCI-H358 cells (ATCC® CRL-5807™) were cultured in T150 flask in growth medium (RPMI medium 1640-(ThermoFisher Scientific 61870) containing 10% fetal bovine serum (ThermoFisher Scientific 10091148)). The cells were harvested in growth medium after TrypLE (ThermoFisher scientific 12604021) digestion and were seeded in 384-well collagen coated cell culture plate (Corning 356702) at a density of 15,000 cells/well, and incubated at 37° C., 5% CO2 overnight. The compound dose-response titrations were prepared and appropriate amounts of compounds were dispensed in a 384-well intermediate plate using an Echo 550 liquid handler. RPMI medium 1640-GlutaMAX™-I were added to the intermediate plate and transferred to 384-well cell culture plate, which was incubated at 37° C., 5% CO2 for 2 hours. After removal of medium from the plate, cells were lysed in lysis buffer from SureFire® Ultra™ Multiplex p-Erk and total Erk assay kit (PerkinElmer MPSU-PTERK) containing Halt™ Protease and Phosphotase inhibitor cocktail (ThermoFisher Scientific 78446) at room temperature with constant shaking at 300 rpm for 30 minutes. The cell lysates were then transferred to OptiPlate-384 plate (PerkinElmer 6005620) and the phosphorylation of Erk and total Erk levels were detected by Alpha SureFire Ultra Multiplex p-Erk kit PerkinElmer MPSU-PTERK) following the manufacturer's protocol. Assay plates were read on an EnVision Multimode Plate Reader (PerkinElmer), and the ratio of p-Erk vs total Erk in each well was used as the final readout. Dose response curves were analyzed using a 4-parameter logistic model to calculate IC50 values using spotfire software.

Where two headings read alike, the source gives them in different places.

With `C=CC(=O)N1CCN(c2nc(OC[C@@H]3CCCN3C)nc3c2CCC2(CCCc4ccnc(O)c42)O3)C[C@@H]1CC#N` (mixture of isomers) [Example 8, 2-((2S)-1-acryloyl-4-(1-hydroxy-2′-(((S)-1-methylpyrrolidin-2-yl)methoxy)-5′,6,6′,7-tetrahydro-5H-spiro[isoquinoline-8,7′-pyrano[2,3-d]pyrimidin]-4′-yl)piperazin-2-yl)acetonitrile], the IC50 in assay [1] was 990 nM; in the assay with NCI-H358 cells (Homo sapiens, NCI-H358, 2 h) it was 23400 nM.
In the case of `C=CC(=O)N1CCN(c2nc(OC[C@@H]3CCCN3C)nc3c2CCC2(CCCc4cccc(C)c42)O3)C[C@@H]1CC#N` (single isomer, unassigned) [Example 1a], the IC50 amounted to 6.37 nM in assay [1] and 495 nM in the assay on NCI-H358 cells.
In the same order, the values of `C=CC(=O)N1CCN(c2nc(OC[C@@H]3CCCN3C)nc3c2CCC2(CCCc4cccc(C)c42)O3)C[C@@H]1CC#N` (single isomer, unassigned) [Example 1b] are 54.9 nM and 2860 nM.
Take `C=CC(=O)N1CCN(c2nc(OC[C@@H]3CCCN3C)nc3c2CCC2(CCCc4ccccc42)O3)C[C@@H]1CC#N` (single isomer, unassigned) [Example 2a]: the IC50 in assay [1] is 13.7 nM; in the assay with NCI-H358 cells (Homo sapiens, NCI-H358, 2 h), 154 nM.
For `C=CC(=O)N1CCN(c2nc(OC[C@@H]3CCCN3C)nc3c2CCC2(CCCc4ccccc42)O3)C[C@@H]1CC#N` (single isomer, unassigned) [Example 2b], the IC50 in assay [1] amounted to 14.7 nM; in the assay on NCI-H358 cells, 268 nM.
As to `C=CC(=O)N1CCN(c2nc(OC[C@@H]3CCCN3C)nc3c2CCC2(CCCc4c(F)cccc42)O3)C[C@@H]1CC#N` (single isomer, unassigned) [Example 3a], the IC50 in assay [1] came out at 14.5 nM; in the assay on NCI-H358 cells it was 506 nM.
In the same order, the values of `C=CC(=O)N1CCN(c2nc(OC[C@@H]3CCCN3C)nc3c2CCC2(CCCc4c(F)cccc42)O3)C[C@@H]1CC#N` (single isomer, unassigned) [Example 3b] are 51 nM and 1120 nM.
As to `C=CC(=O)N1CCN(c2nc(OC[C@@H]3CCCN3C)nc3c2CCC2(CCc4ccccc42)O3)C[C@@H]1CC#N` (single isomer, unassigned) [Example 4a], the IC50 came out at 14.9 nM in assay [1] and 311 nM in the assay with NCI-H358 cells.
Consider `C=CC(=O)N1CCN(c2nc(OC[C@@H]3CCCN3C)nc3c2CCC2(CCc4ccccc42)O3)C[C@@H]1CC#N` (single isomer, unassigned) [Example 4b], for which the IC50 in assay [1] amounted to 164 nM; with NCI-H358 cells, 2500 nM.
`C=CC(=O)N1CCN(c2nc(OCC[C@@H]3CCCN3C)nc3c2CCC2(CCCc4ccccc42)O3)C[C@@H]1CC#N` (single isomer, unassigned) [Example 5a]: the IC50 in assay [1] came out at 18.7 nM; with NCI-H358 cells it was 1250 nM.
In the same order, the values of `C=CC(=O)N1CCN(c2nc(OCC[C@@H]3CCCN3C)nc3c2CCC2(CCCc4ccccc42)O3)C[C@@H]1CC#N` (single isomer, unassigned) [Example 5b] are 274 nM and 5980 nM.
`C=CC(=O)N1CCN(c2nc(OC[C@@H]3CCCN3C)nc3c2CCC2(CCC(C)(C)c4ccccc42)O3)C[C@@H]1CC#N` (single isomer, unassigned) [Example 6a]: the IC50 in assay [1] turned out to be 181 nM; in the assay on NCI-H358 cells (Homo sapiens, NCI-H358, 2 h), 3100 nM.
With `C=CC(=O)N1CCN(c2nc(OC[C@@H]3CCCN3C)nc3c2CCC2(CCC(C)(C)c4ccccc42)O3)C[C@@H]1CC#N` (single isomer, unassigned) [Example 6b], the IC50 in assay [1] stood at 413 nM; in the assay on NCI-H358 cells, 4370 nM.
With `C=CC(=O)N1CCN(c2nc(OC[C@@H]3CCCN3C)nc3c2CCC2(CCC(F)(F)c4ccccc42)O3)C[C@@H]1CC#N` (single isomer, unassigned) [Example 7a], the IC50 amounted to 77.3 nM in assay [1] and 1620 nM with NCI-H358 cells (Homo sapiens, NCI-H358, 2 h).
Regarding `C=CC(=O)N1CCN(c2nc(OC[C@@H]3CCCN3C)nc3c2CCC2(CCC(F)(F)c4ccccc42)O3)C[C@@H]1CC#N` (single isomer, unassigned) [Example 7b], the values for the IC50 (in assay [1]; with NCI-H358 cells) were 119 nM and 2150 nM, respectively.
Take `C=CC(=O)N1CCN(c2nc(OC[C@@H]3CCCN3C)nc3c2CCC2(CCC(C)c4ccccc42)O3)C[C@@H]1CC#N` (single isomer, unassigned) [Example 9a]: the IC50 in assay [1] was 40.5 nM; in the assay with NCI-H358 cells, 1940 nM.
For `C=CC(=O)N1CCN(c2nc(OC[C@@H]3CCCN3C)nc3c2CCC2(CCC(C)c4ccccc42)O3)C[C@@H]1CC#N` (single isomer, unassigned) [Example 9b], the figures for the IC50 (in assay [1]; in the assay on NCI-H358 cells) were 34.2 nM and 1170 nM, respectively.
`C=CC(=O)N1CCN(c2nc(OC[C@@H]3CCCN3C)nc3c2CCC2(CCC(C)c4ccccc42)O3)C[C@@H]1CC#N` (single isomer, unassigned) [Example 9c]: the IC50 is 110 nM in assay [1] and 1840 nM in the assay with NCI-H358 cells.
In the same order, the values of `C=CC(=O)N1CCN(c2nc(OC[C@@H]3CCCN3C)nc3c2CCC2(CCC(C)c4ccccc42)O3)C[C@@H]1CC#N` (single isomer, unassigned) [Example 9d] are 149 nM and 2410 nM.
Turning to `C=CC(=O)N1CCN(c2nc(OC[C@@H]3CCCN3C)nc3c2CCC2(O3)c3ccccc3CCC2C)C[C@@H]1CC#N` (single isomer, unassigned) [Example 10a], the IC50 worked out at 145 nM in assay [1] and 6640 nM in the assay with NCI-H358 cells (Homo sapiens, NCI-H358, 2 h).
`C=CC(=O)N1CCN(c2nc(OC[C@@H]3CCCN3C)nc3c2CCC2(O3)c3ccccc3CCC2C)C[C@@H]1CC#N` (single isomer, unassigned) [Example 10b]: the figures for the IC50 (in assay [1]; in the assay with NCI-H358 cells) were 50 nM and 4530 nM, respectively.
Turning to `C=CC(=O)N1CCN(c2nc(OC[C@@H]3CCCN3C)nc3c2CCC2(CCCc4c(C)cc(C)cc42)O3)C[C@@H]1CC#N` (single isomer, unassigned) [Example 11a], the IC50 in assay [1] turned out to be 46.7 nM; in the assay with NCI-H358 cells, 1800 nM.
In the same order, the values of `C=CC(=O)N1CCN(c2nc(OC[C@@H]3CCCN3C)nc3c2CCC2(CCCc4c(C)cc(C)cc42)O3)C[C@@H]1CC#N` (single isomer, unassigned) [Example 11b] are 661 nM and 28600 nM.
In the same order, the values of `C=CC(=O)N1CCN(c2nc(OCC3(CN(C)C)CC3)nc3c2CCC2(CCCc4ccccc42)O3)C[C@@H]1CC#N` (single isomer, unassigned) [Example 12a] are 99.7 nM and 1330 nM.
Regarding `C=CC(=O)N1CCN(c2nc(OCC3(CN(C)C)CC3)nc3c2CCC2(CCCc4ccccc42)O3)C[C@@H]1CC#N` (single isomer, unassigned) [Example 12b], the IC50 in assay [1] is 728 nM; in the assay with NCI-H358 cells it was 5620 nM.
For the compound `C=CC(=O)N1CCN(c2nc(OC[C@@H]3CCCN3CC)nc3c2CCC2(CCCc4ccccc42)O3)C[C@@H]1CC#N` (single isomer, unassigned) [Example 15a], the IC50 was 43.4 nM in assay [1] and 638 nM in the assay with NCI-H358 cells.
